Results: paper PMC11864979, “First-in-class ultralong-target-residence-time p38α inhibitors as a mitosis-targeted therapy for colorectal cancer” (Nature Cancer, 2025)
Read-outs that look alike come from different tables or passages of the source.

Key:
Assay in all cases: selectivity profiling in a panel of 340 wild-type kinases (Reaction Biology Europe)
Type in all cases: binding
340 wild-type kinases [1] = molecular target: T1, 340 wild-type kinases (Homo sapiens, UniProt Q9UBE8)
T1 construct: purchased Reaction Biology Europe
T1 sequence (Q9UBE8 1-527): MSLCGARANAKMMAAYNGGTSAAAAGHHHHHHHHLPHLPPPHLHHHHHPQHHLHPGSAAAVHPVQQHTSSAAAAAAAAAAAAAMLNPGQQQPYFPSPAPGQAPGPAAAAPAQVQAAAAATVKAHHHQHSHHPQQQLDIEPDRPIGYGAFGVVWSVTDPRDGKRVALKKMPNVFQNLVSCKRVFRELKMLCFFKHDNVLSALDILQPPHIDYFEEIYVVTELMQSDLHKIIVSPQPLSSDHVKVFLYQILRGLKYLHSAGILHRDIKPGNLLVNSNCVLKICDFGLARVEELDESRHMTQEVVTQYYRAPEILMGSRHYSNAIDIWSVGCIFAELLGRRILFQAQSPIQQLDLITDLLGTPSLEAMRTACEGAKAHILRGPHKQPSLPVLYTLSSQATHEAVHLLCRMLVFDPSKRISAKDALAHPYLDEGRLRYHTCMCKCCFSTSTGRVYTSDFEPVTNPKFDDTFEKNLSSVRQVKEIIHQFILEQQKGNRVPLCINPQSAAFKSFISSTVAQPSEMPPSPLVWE

340 wild-type kinases [2] = molecular target: T2, 340 wild-type kinases (Homo sapiens, UniProt Q9UIK4)
T2 construct: purchased Reaction Biology Europe

340 wild-type kinases [3] = molecular target: T3, 340 wild-type kinases (Homo sapiens, UniProt Q15746)
T3 construct: purchased Reaction Biology Europe

340 wild-type kinases [4] = molecular target: T4, 340 wild-type kinases (Homo sapiens, UniProt P53778)
T4 construct: purchased Reaction Biology Europe
T4 sequence (P53778 1-367): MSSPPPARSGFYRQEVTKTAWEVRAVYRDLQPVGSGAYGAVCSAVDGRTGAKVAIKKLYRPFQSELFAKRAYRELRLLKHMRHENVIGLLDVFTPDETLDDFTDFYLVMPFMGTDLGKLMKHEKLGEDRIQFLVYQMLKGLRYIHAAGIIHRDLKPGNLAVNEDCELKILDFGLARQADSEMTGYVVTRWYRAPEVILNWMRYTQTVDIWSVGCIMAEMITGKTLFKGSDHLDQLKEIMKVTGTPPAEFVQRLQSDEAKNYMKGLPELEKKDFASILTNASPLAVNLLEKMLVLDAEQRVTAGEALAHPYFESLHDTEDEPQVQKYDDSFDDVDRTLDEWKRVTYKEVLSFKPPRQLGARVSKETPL

340 wild-type kinases [5] = molecular target: T5, 340 wild-type kinases (Homo sapiens, UniProt P41743)
T5 construct: purchased Reaction Biology Europe
T5 sequence (P41743 1-596): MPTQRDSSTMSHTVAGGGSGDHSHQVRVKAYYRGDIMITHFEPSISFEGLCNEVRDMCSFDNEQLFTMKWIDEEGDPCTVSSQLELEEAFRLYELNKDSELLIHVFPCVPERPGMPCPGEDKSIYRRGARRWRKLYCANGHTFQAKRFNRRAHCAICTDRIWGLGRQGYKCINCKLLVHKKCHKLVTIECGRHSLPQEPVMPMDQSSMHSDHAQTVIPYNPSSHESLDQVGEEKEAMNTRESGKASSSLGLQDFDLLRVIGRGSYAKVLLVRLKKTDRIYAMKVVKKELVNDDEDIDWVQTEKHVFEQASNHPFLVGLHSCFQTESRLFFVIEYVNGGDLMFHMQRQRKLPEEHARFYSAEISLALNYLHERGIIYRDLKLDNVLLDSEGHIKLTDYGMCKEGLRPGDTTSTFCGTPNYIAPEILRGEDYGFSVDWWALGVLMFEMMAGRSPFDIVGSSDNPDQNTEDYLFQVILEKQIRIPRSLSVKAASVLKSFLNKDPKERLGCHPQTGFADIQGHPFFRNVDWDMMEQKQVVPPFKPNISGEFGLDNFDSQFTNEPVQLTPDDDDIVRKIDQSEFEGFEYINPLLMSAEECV

340 wild-type kinases [6] = molecular target: T6, 340 wild-type kinases (Homo sapiens, UniProt Q9Y243)
T6 construct: purchased Reaction Biology Europe

340 wild-type kinases [7] = molecular target: T7, 340 wild-type kinases (Homo sapiens, UniProt Q9H422)
T7 construct: purchased Reaction Biology Europe

340 wild-type kinases [8] = molecular target: T8, 340 wild-type kinases (Homo sapiens, UniProt P21802)
T8 construct: purchased Reaction Biology Europe
T8 sequence (P21802 22-821): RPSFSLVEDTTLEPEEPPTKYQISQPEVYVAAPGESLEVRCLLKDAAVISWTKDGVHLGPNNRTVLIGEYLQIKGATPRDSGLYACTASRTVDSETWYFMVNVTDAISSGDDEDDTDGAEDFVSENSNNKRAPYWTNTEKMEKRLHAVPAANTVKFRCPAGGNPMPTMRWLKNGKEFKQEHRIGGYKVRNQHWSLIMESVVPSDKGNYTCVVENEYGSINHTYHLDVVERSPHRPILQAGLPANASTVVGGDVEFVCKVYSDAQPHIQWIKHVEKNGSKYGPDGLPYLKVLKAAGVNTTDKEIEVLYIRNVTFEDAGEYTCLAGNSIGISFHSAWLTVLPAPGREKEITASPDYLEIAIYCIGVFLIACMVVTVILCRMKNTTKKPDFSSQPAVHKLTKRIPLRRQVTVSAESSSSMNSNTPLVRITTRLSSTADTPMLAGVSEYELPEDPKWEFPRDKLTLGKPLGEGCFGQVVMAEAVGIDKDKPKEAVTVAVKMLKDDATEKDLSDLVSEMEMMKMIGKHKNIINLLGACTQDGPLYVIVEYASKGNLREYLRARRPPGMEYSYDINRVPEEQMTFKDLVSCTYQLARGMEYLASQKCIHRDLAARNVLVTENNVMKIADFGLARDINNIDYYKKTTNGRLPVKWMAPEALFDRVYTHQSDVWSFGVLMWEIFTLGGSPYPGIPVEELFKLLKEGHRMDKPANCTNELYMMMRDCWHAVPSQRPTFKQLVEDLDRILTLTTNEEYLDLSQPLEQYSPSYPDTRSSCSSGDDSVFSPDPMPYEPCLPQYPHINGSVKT

T3 sequence (Q15746 whole entry): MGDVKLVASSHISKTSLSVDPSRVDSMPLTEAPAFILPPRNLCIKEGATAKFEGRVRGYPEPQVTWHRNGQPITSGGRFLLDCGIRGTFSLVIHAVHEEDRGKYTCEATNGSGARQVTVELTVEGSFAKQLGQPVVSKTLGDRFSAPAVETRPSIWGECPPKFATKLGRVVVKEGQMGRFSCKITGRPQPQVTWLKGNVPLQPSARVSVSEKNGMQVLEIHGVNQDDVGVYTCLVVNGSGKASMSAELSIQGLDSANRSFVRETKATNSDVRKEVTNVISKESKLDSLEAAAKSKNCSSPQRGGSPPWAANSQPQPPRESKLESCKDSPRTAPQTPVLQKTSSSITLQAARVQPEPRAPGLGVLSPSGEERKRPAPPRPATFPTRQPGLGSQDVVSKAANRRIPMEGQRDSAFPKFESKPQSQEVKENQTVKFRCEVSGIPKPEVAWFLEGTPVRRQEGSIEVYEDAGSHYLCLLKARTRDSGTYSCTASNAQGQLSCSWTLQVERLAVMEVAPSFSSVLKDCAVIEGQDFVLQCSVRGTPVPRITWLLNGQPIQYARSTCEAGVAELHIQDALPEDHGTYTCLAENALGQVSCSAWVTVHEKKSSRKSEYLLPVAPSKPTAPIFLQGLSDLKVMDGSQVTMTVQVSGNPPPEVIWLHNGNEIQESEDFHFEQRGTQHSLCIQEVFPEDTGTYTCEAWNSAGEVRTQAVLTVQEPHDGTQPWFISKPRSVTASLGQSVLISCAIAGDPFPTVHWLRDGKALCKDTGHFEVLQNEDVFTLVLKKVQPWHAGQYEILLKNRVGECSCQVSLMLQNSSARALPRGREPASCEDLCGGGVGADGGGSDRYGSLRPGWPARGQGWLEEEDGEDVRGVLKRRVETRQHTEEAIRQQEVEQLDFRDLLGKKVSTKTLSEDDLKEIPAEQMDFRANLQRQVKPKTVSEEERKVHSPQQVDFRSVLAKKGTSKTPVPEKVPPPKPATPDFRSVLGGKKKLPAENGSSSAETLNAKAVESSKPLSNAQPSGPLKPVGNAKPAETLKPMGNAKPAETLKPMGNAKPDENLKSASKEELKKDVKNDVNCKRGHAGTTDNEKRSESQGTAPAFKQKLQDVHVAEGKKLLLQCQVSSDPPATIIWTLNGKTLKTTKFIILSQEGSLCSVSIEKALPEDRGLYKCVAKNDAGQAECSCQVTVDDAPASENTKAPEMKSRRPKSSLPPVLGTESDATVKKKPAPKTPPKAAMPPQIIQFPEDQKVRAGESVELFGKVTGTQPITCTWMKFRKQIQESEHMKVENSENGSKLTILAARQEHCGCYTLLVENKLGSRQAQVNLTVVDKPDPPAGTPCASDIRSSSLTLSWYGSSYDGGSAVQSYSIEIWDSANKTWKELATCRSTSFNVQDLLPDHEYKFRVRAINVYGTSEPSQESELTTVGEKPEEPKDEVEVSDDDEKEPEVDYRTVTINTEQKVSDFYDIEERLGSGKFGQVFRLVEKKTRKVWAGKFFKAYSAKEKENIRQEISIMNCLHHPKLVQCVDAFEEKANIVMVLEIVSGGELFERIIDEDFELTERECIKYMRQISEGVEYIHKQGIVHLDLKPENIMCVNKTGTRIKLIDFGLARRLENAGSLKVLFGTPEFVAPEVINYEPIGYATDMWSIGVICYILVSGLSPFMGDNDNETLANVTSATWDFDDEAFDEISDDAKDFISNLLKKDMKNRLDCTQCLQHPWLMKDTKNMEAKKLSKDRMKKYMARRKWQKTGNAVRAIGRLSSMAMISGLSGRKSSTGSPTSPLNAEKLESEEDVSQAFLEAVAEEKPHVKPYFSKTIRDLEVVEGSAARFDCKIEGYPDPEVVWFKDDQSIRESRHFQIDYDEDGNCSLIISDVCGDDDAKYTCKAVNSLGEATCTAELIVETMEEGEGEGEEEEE
T2 sequence (Q9UIK4 whole entry): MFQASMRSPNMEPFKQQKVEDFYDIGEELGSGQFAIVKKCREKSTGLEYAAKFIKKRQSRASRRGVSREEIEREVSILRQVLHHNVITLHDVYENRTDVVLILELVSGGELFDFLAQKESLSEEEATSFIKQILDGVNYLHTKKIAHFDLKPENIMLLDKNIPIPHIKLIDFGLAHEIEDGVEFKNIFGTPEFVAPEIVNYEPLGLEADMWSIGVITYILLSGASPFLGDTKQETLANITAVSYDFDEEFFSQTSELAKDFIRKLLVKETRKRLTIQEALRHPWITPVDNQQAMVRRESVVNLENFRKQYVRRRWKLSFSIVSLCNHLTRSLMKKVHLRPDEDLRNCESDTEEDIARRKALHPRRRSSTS
T6 sequence (Q9Y243 whole entry): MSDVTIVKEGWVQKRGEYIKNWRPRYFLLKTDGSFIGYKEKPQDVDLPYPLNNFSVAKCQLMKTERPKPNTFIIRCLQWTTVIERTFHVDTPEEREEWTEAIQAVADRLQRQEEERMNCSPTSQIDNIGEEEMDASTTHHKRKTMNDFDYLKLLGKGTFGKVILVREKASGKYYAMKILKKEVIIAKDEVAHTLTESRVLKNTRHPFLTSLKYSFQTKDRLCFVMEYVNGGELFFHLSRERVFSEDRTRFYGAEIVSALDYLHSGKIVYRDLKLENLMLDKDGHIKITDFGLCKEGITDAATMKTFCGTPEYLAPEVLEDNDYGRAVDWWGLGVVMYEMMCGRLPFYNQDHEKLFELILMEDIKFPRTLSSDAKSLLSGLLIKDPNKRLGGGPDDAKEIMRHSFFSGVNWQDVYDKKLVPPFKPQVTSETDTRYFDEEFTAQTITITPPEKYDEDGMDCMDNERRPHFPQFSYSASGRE
T7 sequence (Q9H422 whole entry): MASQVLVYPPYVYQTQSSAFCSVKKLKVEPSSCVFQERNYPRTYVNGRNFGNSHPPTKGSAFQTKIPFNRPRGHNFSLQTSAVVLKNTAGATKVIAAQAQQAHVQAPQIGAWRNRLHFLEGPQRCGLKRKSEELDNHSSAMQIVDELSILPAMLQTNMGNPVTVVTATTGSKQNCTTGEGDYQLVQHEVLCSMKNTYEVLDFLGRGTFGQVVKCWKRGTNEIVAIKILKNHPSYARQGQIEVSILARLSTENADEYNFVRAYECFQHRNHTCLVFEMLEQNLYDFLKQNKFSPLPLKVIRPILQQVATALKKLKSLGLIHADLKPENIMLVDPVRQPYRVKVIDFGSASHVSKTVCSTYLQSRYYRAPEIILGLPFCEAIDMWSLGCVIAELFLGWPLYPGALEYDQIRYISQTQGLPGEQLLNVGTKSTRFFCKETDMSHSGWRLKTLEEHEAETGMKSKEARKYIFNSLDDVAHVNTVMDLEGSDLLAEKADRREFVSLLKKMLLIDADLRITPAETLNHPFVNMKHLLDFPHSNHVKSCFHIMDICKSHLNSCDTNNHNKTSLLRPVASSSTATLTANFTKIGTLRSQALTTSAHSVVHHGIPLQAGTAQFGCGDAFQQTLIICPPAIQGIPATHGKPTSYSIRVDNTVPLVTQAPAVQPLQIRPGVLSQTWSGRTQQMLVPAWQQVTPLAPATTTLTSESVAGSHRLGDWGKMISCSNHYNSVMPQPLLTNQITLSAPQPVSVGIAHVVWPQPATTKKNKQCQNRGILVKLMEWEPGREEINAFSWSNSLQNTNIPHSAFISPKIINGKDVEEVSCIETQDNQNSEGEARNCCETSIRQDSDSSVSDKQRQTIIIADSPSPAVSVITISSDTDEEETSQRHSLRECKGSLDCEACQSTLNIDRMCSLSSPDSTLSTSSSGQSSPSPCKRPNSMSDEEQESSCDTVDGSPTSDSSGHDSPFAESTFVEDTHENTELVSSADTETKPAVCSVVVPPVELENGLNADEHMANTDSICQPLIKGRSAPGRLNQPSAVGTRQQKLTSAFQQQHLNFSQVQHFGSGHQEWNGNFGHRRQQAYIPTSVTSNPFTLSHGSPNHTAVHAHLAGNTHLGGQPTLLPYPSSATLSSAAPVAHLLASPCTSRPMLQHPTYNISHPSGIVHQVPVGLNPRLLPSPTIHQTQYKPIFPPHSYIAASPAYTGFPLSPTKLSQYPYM

CNC(=O)c1ccc2c(c1)C(=O)c1ccc(Nc3ccc(F)c(NC(=O)C4CC4)c3)cc1CC2 [Compound 2015]
remaining activity at 0.2 µM (340 wild-type kinases [1]; 0.2 µM 2015, read-out: NLK residual activity): 92%
remaining activity at 1 µM (340 wild-type kinases [1]; 1 µM 2015, read-out: NLK residual activity): 85.5%
remaining activity at 0.2 µM (340 wild-type kinases [1]; NLK, 0.2 µM, read-out: residual activity): 92%
remaining activity at 1 µM (340 wild-type kinases [1]; NLK, 1 µM, read-out: residual activity): 85.5%
remaining activity at 0.2 µM (340 wild-type kinases [2]; 0.2 µM 2015, read-out: DAPK2 residual activity): 116%
remaining activity at 1 µM (340 wild-type kinases [2]; 1 µM 2015, read-out: DAPK2 residual activity): 100%
remaining activity at 0.2 µM (340 wild-type kinases [2]; DAPK2, 0.2 µM, read-out: residual activity): 116%
remaining activity at 1 µM (340 wild-type kinases [2]; DAPK2, 1 µM, read-out: residual activity): 100%
remaining activity at 0.2 µM (340 wild-type kinases [3]; 0.2 µM 2015, read-out: MYLK residual activity): 109%
remaining activity at 1 µM (340 wild-type kinases [3]; 1 µM 2015, read-out: MYLK residual activity): 97.7%
remaining activity at 0.2 µM (340 wild-type kinases [3]; MYLK, 0.2 µM, read-out: residual activity): 109%
remaining activity at 1 µM (340 wild-type kinases [3]; MYLK, 1 µM, read-out: residual activity): 97.7%
remaining activity at 0.2 µM (340 wild-type kinases [4]; 0.2 µM 2015, read-out: p38gamma residual activity): 83.5%
remaining activity at 1 µM (340 wild-type kinases [4]; 1 µM 2015, read-out: p38gamma residual activity): 77.7%
remaining activity at 0.2 µM (340 wild-type kinases [4]; p38gamma, 0.2 µM, read-out: residual activity): 83.5%
remaining activity at 1 µM (340 wild-type kinases [4]; p38gamma, 1 µM, read-out: residual activity): 77.7%
remaining activity at 0.2 µM (340 wild-type kinases [5]; 0.2 µM 2015, read-out: PKCiota residual activity): 104%
remaining activity at 1 µM (340 wild-type kinases [5]; 1 µM 2015, read-out: PKCiota residual activity): 92%
remaining activity at 0.2 µM (340 wild-type kinases [5]; PKCiota, 0.2 µM, read-out: residual activity): 104%
remaining activity at 1 µM (340 wild-type kinases [5]; PKCiota, 1 µM, read-out: residual activity): 92%
remaining activity at 0.2 µM (340 wild-type kinases [6]; 0.2 µM 2015, read-out: AKT3 residual activity): 96%
remaining activity at 1 µM (340 wild-type kinases [6]; 1 µM 2015, read-out: AKT3 residual activity): 89.5%
remaining activity at 0.2 µM (340 wild-type kinases [6]; AKT3, 0.2 µM, read-out: residual activity): 96%
remaining activity at 1 µM (340 wild-type kinases [6]; AKT3, 1 µM, read-out: residual activity): 89.5%
remaining activity at 0.2 µM (340 wild-type kinases [7]; 0.2 µM 2015, read-out: HIPK3 residual activity): 104%
remaining activity at 1 µM (340 wild-type kinases [7]; 1 µM 2015, read-out: HIPK3 residual activity): 104%
remaining activity at 0.2 µM (340 wild-type kinases [7]; HIPK3, 0.2 µM, read-out: residual activity): 104%
remaining activity at 1 µM (340 wild-type kinases [7]; HIPK3, 1 µM, read-out: residual activity): 104%
remaining activity at 0.2 µM (340 wild-type kinases [8]; 0.2 µM 2015, read-out: FGFR2 residual activity): 94.1%
remaining activity at 1 µM (340 wild-type kinases [8]; 1 µM 2015, read-out: FGFR2 residual activity): 96%
remaining activity at 0.2 µM (340 wild-type kinases [8]; FGFR2, 0.2 µM, read-out: residual activity): 94.1%
remaining activity at 1 µM (340 wild-type kinases [8]; FGFR2, 1 µM, read-out: residual activity): 96%
